Values after ≈ are worked out from the molar mass of the structure shown. Where two headings read alike, the source gives them in different places.

Assay [1] concerns Trypanosoma brucei rhodesiense (strain STIB900). In words: In vitro drug activity assay, protozoon B (bloodstream form trypomastigotes, Alamar Blue). The class given is cell-based. Conditions: incubated for 72 hours. On the procedure:
Trypanosoma brucei rhodesiense STIB900 bloodstream form trypomastigotes were maintained in HMI-18 medium (Hirumi H, Hirumi K, J Parasitol. 1989, 75(6):985-989) with 15% heat-inactivated fetal calf serum at 37°C, 5% CO2, humidified atmosphere. Trypomastigotes were washed and resuspended in fresh medium at a concentration of 2 x 10^5 mL. Test compounds were given to the trypomastigotes and plates were incubated for 72 hours at 37°C, 5% CO2, humidified atmosphere. At 72 hours the plates were assessed microscopically before Alamar Blue was added (Raz et al., Acta Trop. 1997, 68: 139-147). Plates were read after 5 to 6 hours at EX/EM 530/585 nm with a filter cutoff at 550 nm. ED50 values were calculated with Msxlfit (IDBS).
(§1) The following protozoa were assessed: • A) Trypanosoma cruzi (Tulahuan-LACZ amstigotes in PEM, Lorente SO et al., Antimicrobial agents and chemotherapy 2004, 48(8): 2937-2950; Buckner et al., Infection and Immunity 1999, 67(1): 403-409; Buckner et al., Antimicrobial Agents and Chemotherapy 1996, 40(11): 2592-2597) • B) Trypanosoma brucei rhodesiense (strain STIB900, Lorente SO et al., Antimicrobial agents and chemotherapy 2004, 48(8): 2937-2950; Habtemariam S, BMC Pharmacology 2003, 3:6) • C) Plasmodium falciparum (strain K1, Korsinczky M et al., Antimicrobial agents and chemotherapy 2000, 44(8): 2100-2108; Thaitong S and Beale GH, Trans. R. Soc. Trop. Med. Hyg. 1981, 75: 271-273; Trager W and Jensen JB, Science 1976, 193: 673-675) • D) Plasmodium falciparum (strain 3D7, Mu et al., PLoS Biology 2005, 3(10): e335)
On the technique in general: The colour change of resazurin is a common sign of viable cells or microbes.

The subject of assay [2] is Trypanosoma cruzi (Tulahuan-LACZ amstigotes in PEM). As to the kind of experiment: In vitro drug activity assay, protozoon A (amastigotes in murine peritoneal macrophages, CPRG readout). The settings on record: infected macrophages exposed for 3 days. The assay is classed as cell-based. On the procedure: Murine (CD1) peritoneal macrophages were harvested 24 hours after starch induction and dispensed into 96-well plates at a concentration of 4 x 10^5 mL. After 24 hours, the cells were infected with Trypanosoma cruzi Tulahuan LAC-Z amastigotes (grown and cultured according to Buckner et al., Infection and Immunity 1999, 67(1): 403-409). 24 hours later, the infected cells were exposed to the test compounds (compounds of the invention as well as known prior art compounds) for 3 days and 50 µL of 500 µM CPRG-1% Nonidet P-40 was added to each well. The plates were read after 2 to 5 hours at 570 nm (Buckner et al., Antimicrobial Agents and Chemotherapy 1996, 40(11): 2592-2597). ED50 values were calculated with Msxlfit (IDBS).
as §1

The subject of assay [3] is Cryptocoocus gattii (ATCC 32608). As to the kind of experiment: Anti-fungal susceptibility test (microdilution), fungus G. The class given is cell-based. On the procedure: (§2) The antifungal activities of the test compounds (compounds of the invention and known prior art compounds) were measured according to standard microdilution methods (Cryptococcus/Aspergillus: Ghannoum et al., Journal of Clinical Microbiology 1992, 30 (11): 2881-2886; Candida: Reference method for broth dilution susceptibility testing of yeast: proposed standard, NCCLS document M27-P, National Committee for Clinical Laboratory Standards 1992, Villanova, Pa).
(§3) A serial dilution series starting from 64 µg/mL test compound per well down to 0.125 µg/mL test compound per well was applied for each test compound on each fungus. The MIC of each compound was defined as the concentration which produces no visible growth after 48 hours (Candida) and 72 hours (Cryptococcus, Aspergillus) of culture at 35° C.
(§4) The following fungi were assessed: • A) Candida albicans (ATCC 10231) • B) Candida albicans (ATCC 90028) • C) Candida albicans (strain TS3, Shrikantha et al., Journal of Bacteriology 2000, 182(6):1580-1591) • D) Candida parapsilosis (ATCC 22019) • E) Cryptocoocus neoformans (ATCC 90112) • F) Cryptocoocus neoformans (strain H99; Ganendren et al., Antimicrobial Agents and Chemotherapy, 2004, 48(5):1561-1569) • G) Cryptocoocus gattii (ATCC 32608) • H) Aspergillus fumigatus (ATCC 204305) • I) Aspergillus fumigatus (strain 322-384)
In general terms: Broth dilution looks for growth in wells or tubes with falling amounts of substance.

In assay [4] the test system is Cryptocoocus neoformans (strain H99). In words: Anti-fungal susceptibility test (microdilution), fungus F. The class given is cell-based. On the procedure: as §2, §3, §4
In assay [5] the test system is Plasmodium falciparum (strain K1). In words: In vitro drug susceptibility assay, protozoon C (3[H]-hypoxanthine method). The class given is cell-based. On the procedure: (§5) Plasmodium falciparum strain K1 and strain 3D7 parasites were cultured according to Trager W and Jensen JB (Science 1976, 193: 673-675). In vitro drug susceptibility assays with the test compounds were carried out according to Korsinczky M et al. (Antimicrobial agents and chemotherapy 2000, 44(8): 2100-2108) and Fivelman QL et al. (Antimicrobial agents and chemotherapy 2004, 48(11): 4097-4102) using a ^3[H]-hypoxanthine radioisotope method. ED50 values were calculated with Msxlfit (IDBS).
as §1

Assay [6] concerns Aspergillus fumigatus (strain 322-384). In words: Anti-fungal susceptibility test (microdilution), fungus I. The class given is cell-based. The settings on record: Aspergillus fumigatus, no visible growth after 72 hours at 35° C, read-out: MIC. On the procedure: as §2, §3, §4
The subject of assay [7] is Aspergillus fumigatus (ATCC 204305). In words: Anti-fungal susceptibility test (microdilution), fungus H. The class given is cell-based. The settings on record: Aspergillus fumigatus, ATCC204305, no visible growth after 72 hours at 35° C, read-out: MIC. On the procedure: as §2, §3, §4
Assay [8] has as its system Candida albicans (ATCC 10231). As to the kind of experiment: Anti-fungal susceptibility test (microdilution), fungus A. The assay is classed as cell-based. Conditions: Candida albicans, ATCC10231, no visible growth after 48 hours at 35° C, read-out: MIC. On the procedure:
as §2, §3, §4

Assay [9] has as its system Candida albicans (strain TS3). As to the kind of experiment: Anti-fungal susceptibility test (microdilution), fungus C. The assay is classed as cell-based. The settings on record: Candida albicans, no visible growth after 48 hours at 35° C, read-out: MIC. On the procedure: as §2, §3, §4
The test system of assay [10] is Candida albicans (ATCC 90028). In words: Anti-fungal susceptibility test (microdilution), fungus B. The class given is cell-based. Conditions: Candida albicans, ATCC90028, no visible growth after 48 hours at 35° C, read-out: MIC. On the procedure: as §2, §3, §4
Assay [11] concerns Plasmodium falciparum (strain 3D7). In words: In vitro drug susceptibility assay, protozoon D (3[H]-hypoxanthine method). The class given is cell-based. On the procedure:
as §5, §1

Assay [12] deals with Candida parapsilosis (ATCC 22019). As to the kind of experiment: Anti-fungal susceptibility test (microdilution), fungus D. The assay is classed as cell-based. Conditions: ATCC22019, no visible growth after 48 hours at 35° C, read-out: MIC. On the procedure:
as §2, §3, §4

Assay [13] has as its system Cryptocoocus neoformans (ATCC 90112). In words: Anti-fungal susceptibility test (microdilution), fungus E. The assay is classed as cell-based. On the procedure: as §2, §3, §4
Assay [14] deals with Leishmaniasis. The settings on record: clinical phase III trials, parenteral; cited from earlier work.
Setting [15] is: fungus G, no visible growth after 72 hours at 35° C, read-out: MIC.
Setting [16] is: fungus F, no visible growth after 72 hours at 35° C, read-out: MIC.
Where [17] appears, read: fungus E, no visible growth after 72 hours at 35° C, read-out: MIC.

Broadly, the MIC is the lowest concentration found to suppress growth. Turning to `CCCCCCCCCCCCCCCCOP(=O)([O-])OC1CC[N+](C)(Cc2ccccc2)CC1` (stereo not shown) [Compound 1, Phosphoric acid 1-benzyl-1-methyl-piperidin-4-yl ester hexadecyl ester], the “ED50 (µg/mL)” value in assay [1] is 18,80 µg/mL; in [2], 1,71 µg/mL; in assay [5], 6,93 µg/mL; in assay [11] it was 9,97 µg/mL. Moreover, the minimum inhibitory concentration (MIC) in [3] (setting [15]) was determined as 1 µg/mL (≈ 1.96 µM); in assay [4] (setting [16]), 2 µg/mL (≈ 3.92 µM); in [6] it was 2 µg/mL (≈ 3.92 µM); in [7], 2 µg/mL (≈ 3.92 µM); in assay [8], 2 µg/mL (≈ 3.92 µM); in [9], 1.5 µg/mL (≈ 2.94 µM). The values for the minimal inhibitory concentration (MIC) in [10], in assay [12] and in [13] (setting [17]) were 1 µg/mL (≈ 1.96 µM), 3 µg/mL (≈ 5.89 µM) and 1.5 µg/mL (≈ 2.94 µM), respectively.
As to `CCCCCCCCCCCCCCCCOP(=O)([O-])OCC[N+]12CCC(CC1)CC2` [Compound 3, Phosphoric acid 2-(1-aza-bicyclo[2.2.2]oct-1-yl)-ethyl ester hexadecyl ester], the “ED50 (µg/mL)” value was 25,03 µg/mL in assay [1], 0,33 µg/mL in assay [2], 8,03 µg/mL in [5] and 2,25 µg/mL in assay [11]. Moreover, the MIC in assay [3] (72 h) came out at 0.75 µg/mL (≈ 1.63 µM); in assay [4] (72 h) it was 1 µg/mL (≈ 2.18 µM); in assay [6], 2 µg/mL (≈ 4.35 µM); in assay [7], 3 µg/mL (≈ 6.53 µM); in assay [8] it was 1 µg/mL (≈ 2.18 µM); in assay [9], 2 µg/mL (≈ 4.35 µM). Besides, the minimal inhibitory concentration (MIC) in [10] is 1 µg/mL (≈ 2.18 µM); in [12] it was 2 µg/mL (≈ 4.35 µM); in [13] (72 h) it was 1.5 µg/mL (≈ 3.26 µM).
With `CCCCCCCCCCCCCCCCCCOP(=O)([O-])OC1CC[N+](CC)(CC)CC1` [Compound 5, Phosphoric acid 1,1-diethyl-piperidin-4-yl ester octadecyl ester], the “ED50 (µg/mL)” value was 14,20 µg/mL in [1], 1,43 µg/mL in assay [2], 21,26 µg/mL in [5] and 16,31 µg/mL in assay [11]. The MIC came to 0.75 µg/mL (≈ 1.53 µM) in assay [3] (setting [15]); 2 µg/mL (≈ 4.08 µM) in assay [4] (setting [16]); 8 µg/mL (≈ 16.3 µM) in assay [6]; 6 µg/mL (≈ 12.3 µM) in assay [7]; 2 µg/mL (≈ 4.08 µM) in [8]; 2 µg/mL (≈ 4.08 µM) in assay [9]. In addition, the values for the minimal inhibitory concentration (MIC) in [10], in assay [12] and in assay [13] (setting [17]) were 2 µg/mL (≈ 4.08 µM), 3 µg/mL (≈ 6.13 µM) and 1.5 µg/mL (≈ 3.06 µM), respectively.
Regarding `NC[C@@H]1O[C@H](O[C@H]2[C@@H](O)[C@H](O[C@@H]3[C@@H](O)[C@H](N)C[C@H](N)[C@H]3O[C@H]3O[C@H](CO)[C@@H](O)[C@H](O)[C@H]3N)O[C@@H]2CO)[C@H](N)[C@@H](O)[C@@H]1O` [paromomycin], in [14], the “efficient in % of the cases” value is listed as 95%.

These data come from patent EP1800684A1, “Novel alkyl phospholipid derivatives and uses thereof” (Zentaris GmbH, priority 2005, dated 2007).
